Results reported in ChEMBL document CHEMBL1201862, “PubChem BioAssay data set” (2004).
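Method: 48-hour compound exposure of cells in 96-well plates, five concentrations, linear interpolation of endpoints. Abbreviation: GI50, concentration required for 50% inhibition of growth.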 Active and inactive are the calls of the source. Rule as the data show it: active = GI50 up to about 1.1 µM and inactive = higher.

How the values were obtained:
Assay in all cases: inhibition of tumour cell growth, NCI panel, 48 h
[1] = system: SNB-75
[2] = system: OVCAR-5
[3] = system: HOP-92
[4] = system: SNB-78
[5] = system: SW-620
[6] = system: HCC 2998
[7] = system: SF-268
[8] = system: TK-10
[9] = system: A498
[10] = system: CAKI-1
[11] = system: HCT-116
[12] = system: U-251
[13] = system: M14
[14] = system: KM12
[15] = system: HOP-62
[16] = system: SF-539
[17] = system: DMS-114
[18] = system: RPMI-8226
[19] = system: OVCAR-8
[20] = system: HL-60
[21] = system: MOLT-4
[22] = system: LOX IMVI
[23] = system: HCT-15
[24] = system: DMS-273
[25] = system: UO-31
[26] = system: HT-29
[27] = system: OVCAR-3
[28] = system: RXF 631
[29] = system: SK-MEL-2
[30] = system: UACC-62
[31] = system: 786-0
[32] = system: COLO 205
[33] = system: CCRF-CEM
[34] = system: IGROV-1
[35] = system: SF-295
[36] = system: Malme-3M
[37] = system: ACHN
[38] = system: LXFL 529
[39] = system: XF498
[40] = system: NCI-H460
[41] = system: K562
[42] = system: M19-MEL
[43] = system: UACC-257
[44] = system: NCI-H522
[45] = system: DLD-1
[46] = system: RXF 393
[47] = system: SK-MEL-28
[48] = system: OVCAR-4
[49] = system: SN12C
[50] = system: NCI-H23
[51] = system: A549
[52] = system: SNB-19
[53] = system: SK-MEL-5
[54] = system: EKVX
[55] = system: SK-OV-3
[56] = system: SR
[57] = system: KM-20L2

Which GI50 [1] does the source give for `CC1=C2C=CC(=O)C[C@@]2(C)CCC1` here?
Its GI50 is 69.2 µM (inactive).

And the GI50 [2]?
The GI50 was > 100 µM (inactive).

And the GI50 [3]?
The GI50 was > 100 µM (inactive).

What about the GI50 [4] of the same compound?
Its GI50 is > 100 µM (inactive).

And the GI50 [5]?
The GI50 was > 100 µM (inactive).

What about the GI50 [6] of the same compound?
The GI50 was > 100 µM (inactive).

And the GI50 [7]?
Its GI50 is > 100 µM (inactive).

And the GI50 [8]?
Its GI50 is > 100 µM (inactive).

What about the GI50 [9] of the same compound?
Its GI50 is > 100 µM (inactive).

And the GI50 [10]?
Its GI50 is > 100 µM (inactive).

And the GI50 [11]?
Its GI50 is > 100 µM (inactive).

What about the GI50 [12] of the same compound?
Its GI50 is > 100 µM (inactive).

And the GI50 [13]?
Its GI50 is > 100 µM (inactive).

And the GI50 [14]?
The GI50 was > 100 µM (inactive).

What about the GI50 [15] of the same compound?
The GI50 was > 100 µM (inactive).

What about the GI50 [16] of the same compound?
Its GI50 is > 100 µM (inactive).

What about the GI50 [17] of the same compound?
The GI50 was > 100 µM (inactive).

And the GI50 [18]?
The GI50 was > 100 µM (inactive).

What about the GI50 [19] of the same compound?
The GI50 was > 100 µM (inactive).

And the GI50 [20]?
The GI50 was > 100 µM (inactive).

And the GI50 [21]?
Its GI50 is > 100 µM (inactive).

What about the GI50 [22] of the same compound?
Its GI50 is > 100 µM (inactive).

And the GI50 [23]?
Its GI50 is over 100 µM.

What about the GI50 [24] of the same compound?
The GI50 was > 100 µM (inactive).

What about the GI50 [25] of the same compound?
Its GI50 is > 100 µM (inactive).

And the GI50 [26]?
The GI50 was > 100 µM (inactive).

What about the GI50 [27] of the same compound?
The GI50 was > 100 µM (inactive).

And the GI50 [28]?
The GI50 was > 100 µM (inactive).

What about the GI50 [29] of the same compound?
Its GI50 is > 100 µM (inactive).

And the GI50 [30]?
The GI50 was > 100 µM (inactive).

What about the GI50 [31] of the same compound?
The GI50 was > 100 µM (inactive).

What about the GI50 [32] of the same compound?
Its GI50 is > 100 µM (inactive).

And the GI50 [33]?
The GI50 was > 100 µM (inactive).

What about the GI50 [34] of the same compound?
The GI50 was > 100 µM (inactive).

And the GI50 [35]?
Its GI50 is > 100 µM (inactive).

And the GI50 [36]?
The GI50 was > 100 µM (inactive).

And the GI50 [37]?
The GI50 was > 100 µM (inactive).

What about the GI50 [38] of the same compound?
Its GI50 is > 100 µM (inactive).

And the GI50 [39]?
The GI50 was > 100 µM (inactive).

What about the GI50 [40] of the same compound?
Its GI50 is > 100 µM (inactive).

What about the GI50 [41] of the same compound?
Its GI50 is > 100 µM (inactive).

What about the GI50 [42] of the same compound?
The GI50 was > 100 µM (inactive).

What about the GI50 [43] of the same compound?
Its GI50 is > 100 µM (inactive).

What about the GI50 [44] of the same compound?
Its GI50 is > 100 µM (inactive).

And the GI50 [45]?
Its GI50 is > 100 µM (inactive).

What about the GI50 [46] of the same compound?
The GI50 was > 100 µM (inactive).

And the GI50 [47]?
The GI50 was > 100 µM (inactive).

And the GI50 [48]?
Its GI50 is > 100 µM (inactive).

And the GI50 [49]?
Its GI50 is > 100 µM (inactive).

And the GI50 [50]?
The GI50 was > 100 µM (inactive).

What about the GI50 [51] of the same compound?
Its GI50 is > 100 µM (inactive).

And the GI50 [52]?
Its GI50 is > 100 µM (inactive).

What about the GI50 [53] of the same compound?
The GI50 was > 100 µM (inactive).

And the GI50 [54]?
The GI50 was > 100 µM (inactive).

And the GI50 [55]?
Its GI50 is > 100 µM (inactive).

Which results are given for `OCC(O)C(OC1OC(CO)C(O)C(O)C1O)c1nn(-c2ccc(Cl)cc2)c2nc3cc(Cl)ccc3nc12` (configuration not stated)?
GI50 [1]: > 100 µM (inactive); GI50 [2]: > 100 µM (inactive); GI50 [4]: > 100 µM (inactive); GI50 [6]: > 100 µM (inactive); GI50 [7]: > 100 µM (inactive); GI50 [8]: > 100 µM (inactive); GI50 [9]: > 100 µM (inactive); GI50 [11]: > 100 µM (inactive); GI50 [12]: > 100 µM (inactive); GI50 [13]: > 100 µM (inactive); GI50 [14]: > 100 µM (inactive); GI50 [15]: > 100 µM (inactive); GI50 [16]: > 100 µM (inactive); GI50 [17]: > 100 µM (inactive); GI50 [18]: > 100 µM (inactive); GI50 [19]: > 100 µM (inactive); GI50 [56]: > 100 µM (inactive); GI50 [21]: > 100 µM (inactive); GI50 [22]: > 100 µM (inactive); GI50 [23]: > 100 µM; GI50 [25]: > 100 µM (inactive); GI50 [26]: > 100 µM (inactive); GI50 [27]: > 100 µM (inactive); GI50 [28]: > 100 µM (inactive); GI50 [30]: > 100 µM (inactive); GI50 [31]: > 100 µM (inactive); GI50 [33]: > 100 µM (inactive); GI50 [35]: > 100 µM (inactive); GI50 [36]: > 100 µM (inactive); GI50 [37]: > 100 µM (inactive); GI50 [38]: > 100 µM (inactive); GI50 [57]: > 100 µM (inactive); GI50 [39]: > 100 µM (inactive); GI50 [40]: > 100 µM (inactive); GI50 [41]: > 100 µM (inactive); GI50 [42]: > 100 µM (inactive); GI50 [43]: > 100 µM (inactive); GI50 [44]: > 100 µM (inactive); GI50 [45]: > 100 µM (inactive); GI50 [46]: > 100 µM (inactive); GI50 [47]: > 100 µM (inactive); GI50 [48]: > 100 µM (inactive); GI50 [49]: > 100 µM (inactive); GI50 [50]: > 100 µM (inactive); GI50 [52]: > 100 µM (inactive); GI50 [54]: > 100 µM (inactive); GI50 [55]: > 100 µM (inactive)
